In publication PMC6349357, “Computational and experimental analysis of bioactive peptide linear motifs in the integrin adhesome” (PLoS ONE, 2019):
Marks after values point to notes of the source that are not given here.

Legend:
resting platelets = assay: Platelet aggregation induced by peptide in resting washed platelets (activation); assay type: cell-based, human (healthy volunteers); conditions: for Activation, 5μM / Activation, 20μM: S3 Table, n=3; for Activation, 5μM: peptide 5 μM; for Activation, 5μM / Activation, 20μM / Activation / Activation, donor 14 06 13 / Activation, donor 20 08 13: unit assumed; for Activation, 20μM: peptide 20 μM; for Activation: platelet aggregation in resting platelets after 6 minutes incubation with peptide, pal-peptides 20 μM, tat-peptides 50 μM, optical density, aggregometer, mean, n>=3; for Activation, donor 14 06 13: replicate 14_06_13; for Activation, donor 14 06 13 / Activation, donor 18_06_13 / Activation, donor 20_06_13 / Activation, donor 20 08 13 / Activation, donor 22_08_13_DONOR1 / Activation, donor 22_08_13_DONOR2: SDC4 peptides and controls, 20 μM; for Activation, donor 18_06_13: replicate 18_06_13; for Activation, donor 18_06_13 / Activation, donor 20_06_13: in % (unit assumed); for Activation, donor 20_06_13: replicate 20_06_13; for Activation, donor 20 08 13: replicate 20_08_13; for Activation, donor 22_08_13_DONOR1: replicate 22_08_13_DONOR1; for Activation, donor 22_08_13_DONOR2: replicate 22_08_13_DONOR2; for Aggregation before TRAP activation, donor h: replicate donor h; for Aggregation before TRAP activation, donor h / Aggregation before TRAP activation, donor i / Aggregation before TRAP activation, donor j: pal 20 μM, tat 50 μM; for Aggregation before TRAP activation, donor i: replicate donor i; for Aggregation before TRAP activation, donor j: replicate donor j
Method: (§1) Blood was drawn from healthy volunteers into a syringe containing a final volume of 15% Acid Citrate Dextrose (ACD). The blood/ACD mixture was then aliquoted into 15 ml Cellstar tubes, at volumes of 5ml per tube, and centrifuged at 150 rcf for 10 minutes to obtain platelet rich plasma (PRP). PRP was then transferred to a 50ml tube using a pipette. The pH was then adjusted to 6.5. Prostaglandin (PGE1) was then added with a final concentration of 1μM. The PRP was then centrifuged at 750 rcf. After centrifugation the platelet poor plasma (PPP) was discarded and the pellet was resuspended in buffer A (6 mM dextrose, 130 mM NaCl, 9 mM NaHCO3, 10 mM sodium citrate, 10 mM Tris base, 3 mM KCl, 0.81 mM KH2PO4 and 0.9 mM MgCl26H2O, pH 7.4). A platelet concentration of 3x10^5/μl or 1x10^6/μl was obtained by dilution depending on the experiment in which they were used. Platelets were left to rest for 45 minutes and supplemented with 1.8mM calcium chloride prior to use.
(§2) A platelet concentration of 3x10^5 /μl was used when performing standard aggregations and a concentration of 1x10^6 /μl was used for sample preparation for western blot analysis. The extent of platelet aggregation was measured by quantifying the optical density of the samples using the Bio-Data PAP-8 aggregometer (platelet aggregation profiler, Horsham, PA, USA). A temperature of 37°C was maintained and samples were stirred using magnets spinning at 1100 rpm. 200 μl of washed platelets was added to each aggregation tube. Different volumes of buffer, peptide and TRAP were added to achieve the desired concentrations. Peptide/buffer was added to each well after two minutes. TRAP, with a final concentration depending on the experiment, was added 6 minutes later and data was collected for an additional 7 minutes.

TRAP-activated platelets = assay: Inhibition of TRAP-induced platelet aggregation after pre-incubation with peptide; assay type: cell-based, human (healthy volunteers); conditions: for Aggregation (inhibition effects of syndecan-derived peptides): S2 Table A, n=6; for Summary of effects of SDC4-derived palmitylated peptides and scrambled controls, 20μM: S2 Table B / S2 Fig, activation of resting platelets and inhibition of aggregation induced by 4 μM TRAP, in words; for Inhibition, donor 14_06_13: replicate 14_06_13; for Inhibition, donor 18_06_13: replicate 18_06_13; for Inhibition, donor 20_06_13: replicate 20_06_13; for Inhibition, donor 20_08_13: replicate 20_08_13; for Aggregation after TRAP activation, donor h: replicate donor h; for Aggregation after TRAP activation, donor h / Aggregation after TRAP activation, donor i / Aggregation after TRAP activation, donor j: pal 20 μM, tat 50 μM; for Aggregation after TRAP activation, donor i: replicate donor i; for Aggregation after TRAP activation, donor j: replicate donor j
Method: as §1, §2

[1] = platelet aggregation induced by 4 μM TRAP in platelets pre-incubated with peptide (low value = inhibition), pal-peptides 20 μM, tat-peptides 50 μM, mean, n>=3
[2] = replicate 22_08_13_DONOR1, peptide 20 μM, TRAP 4 μM
[3] = replicate 22_08_13_DONOR2, peptide 20 μM, TRAP 4 μM
[4] = S3 Table, peptide 5 μM, aggregation after TRAP, n=3
[5] = S3 Table, peptide 20 μM, aggregation after TRAP, n=3

Substance | Activation, 20μM (resting platelets) [%] | Activation (resting platelets) [%] | Activation, donor 14 06 13 (resting platelets) [%] | Activation, donor 18_06_13 (resting platelets) | Activation, donor 20_06_13 (resting platelets) | Activation, donor 20 08 13 (resting platelets) [%] | Activation, donor 22_08_13_DONOR1 (resting platelets) | Activation, donor 22_08_13_DONOR2 (resting platelets) | Aggregation before TRAP activation, donor h (resting platelets) | Aggregation before TRAP activation, donor i (resting platelets) | Aggregation before TRAP activation, donor j (resting platelets) | Inhibition, donor 14_06_13 (TRAP-activated platelets; peptide 20 μM, TRAP 4 μM) | Inhibition, donor 18_06_13 (TRAP-activated platelets; peptide 20 μM, TRAP 4 μM) | Inhibition, donor 20_06_13 (TRAP-activated platelets; peptide 20 μM, TRAP 4 μM) | Inhibition, donor 20_08_13 (TRAP-activated platelets; peptide 20 μM, TRAP 4 μM) | Platelet aggregation remaining after TRAP (low = inhibition) (TRAP-activated platelets; [2]) | Platelet aggregation remaining after TRAP (low = inhibition) (TRAP-activated platelets; [3]) | Aggregation after TRAP activation, donor h (TRAP-activated platelets; TRAP 4 μM) | Aggregation after TRAP activation, donor i (TRAP-activated platelets; TRAP 4 μM) | Aggregation after TRAP activation, donor j (TRAP-activated platelets; TRAP 4 μM) | also measured
pal-LGKKPIYKK-(NH2) [pal-SDC4_middle, N-terminally palmitylated syndecan-4 middle (variable) region peptide] | 1 | 0 | 1 | -1 | 2 | 0 | 1 | 0 | 1 | 0 | 1 | 60 | 23 | 51 | 7 | 3 | 14 | 3 | 2 | 4 | Activation, 5μM (resting platelets; listed as A8p SDC4-middle): 2%; Activation, 5μM (resting platelets; listed as Variable (B)): 1%; Aggregation (inhibition effects of syndecan-derived peptides) (TRAP-activated platelets; peptide 20 μM, TRAP 4 μM, mean): 26; Summary of effects of SDC4-derived palmitylated peptides and scrambled controls, 20μM (TRAP-activated platelets): Inhibitor; Platelet aggregation remaining after TRAP (low = inhibition) (TRAP-activated platelets; S3 Table, peptide 5 μM, aggregation after TRAP, n=3, listed as A8p SDC4-middle): 72; Platelet aggregation remaining after TRAP (low = inhibition) (TRAP-activated platelets; S3 Table, peptide 5 μM, aggregation after TRAP, n=3, listed as Variable (B)): 59; Platelet aggregation remaining after TRAP (low = inhibition) (TRAP-activated platelets; S3 Table, peptide 20 μM, aggregation after TRAP, n=3, listed as A8p SDC4-middle): 41; Platelet aggregation remaining after TRAP (low = inhibition) (TRAP-activated platelets; S3 Table, peptide 20 μM, aggregation after TRAP, n=3, listed as Variable (B)): 26; Aggregation after TRAP, peptide alone 1x (A 1x / B 1x) (TRAP-activated platelets; TRAP 2 μM after 6 minutes pre-incubation, 4 μM pal-peptides, 10 μM tat-peptides, mean n = 3): 31.67; Aggregation after TRAP, peptide alone 2x (A 2x / B 2x) (TRAP-activated platelets; TRAP 2 μM after 6 minutes pre-incubation, double concentration of 4 μM (pal) / 10 μM (tat), mean n = 3): 1.67; Platelet aggregation after TRAP activation (TRAP-activated platelets; [1]): 3 ^*
tat-AGAKLRKVSKQE-(NH2) [tat-VASP, tat peptide from VASP] | – | 3 | – | – | – | – | – | – | 3 | 3 | 3 | – | – | – | – | – | – | 75 | 71 | 76 | Platelet aggregation remaining after TRAP (low = inhibition) (TRAP-activated platelets; [1]): 74
tat-EPDFPPPPPDLE-(NH2) [tat-VCL, tat peptide from VCL] | – | 4 | – | – | – | – | – | – | 4 | 4 | 4 | – | – | – | – | – | – | 68 | 67 | 77 | Platelet aggregation remaining after TRAP (low = inhibition) (TRAP-activated platelets; [1]): 70
Pal-RMKKKDEGSYD-LGKKPIYKK [pal-SDC4-JM U SDC4-middle, palmitylated chimeric peptide of SDC4 juxtamembrane and middle regions] | 4 | – | 0 | 2 | 1 | 6 | 6 | 7 | – | – | – | 26 | 9 | 47 | 12 | 8 | 14 | – | – | – | Activation, 5μM (resting platelets): 2%; Aggregation (inhibition effects of syndecan-derived peptides) (TRAP-activated platelets; peptide 20 μM, TRAP 4 μM, mean): 19; Platelet aggregation remaining after TRAP (low = inhibition) (TRAP-activated platelets; [4]): 61; Platelet aggregation remaining after TRAP (low = inhibition) (TRAP-activated platelets; [5]): 19
KIKGPKLKY [pal-SDC4_middle Control 1, scrambled control of pal-SDC4_middle, reference compound] | – | – | 4 | 4 | 0 | 5 | 6 | 5 | – | – | – | 8 | 9 | 2 | 8 | 5 | 10 | – | – | – | Summary of effects of SDC4-derived palmitylated peptides and scrambled controls, 20μM (TRAP-activated platelets): Inhibitor and mild activator
tat-SVSETDDpYAEIIDE-(NH2) [tat-FAK_2, tat peptide from PTK2/FAK1, phosphorylated tyrosine] | – | 3 | – | – | – | – | – | – | 4 | 3 | 4 | – | – | – | – | – | – | 77 | 61 | 76 | Platelet aggregation remaining after TRAP (low = inhibition) (TRAP-activated platelets; [1]): 71
MGYRKEDKDKS [pal-SDC4_JM Control 2, scrambled control of pal-SDC4_JM, reference compound] | – | – | – | – | – | 2 | 1 | 2 | – | – | – | – | – | – | 4 | 3 | 14 | – | – | – | Summary of effects of SDC4-derived palmitylated peptides and scrambled controls, 20μM (TRAP-activated platelets): Inhibitor
Pal-RMKKKDEGSYD-APTNEFYA [pal-SDC4-JM U SDC4-tail, palmitylated chimeric peptide of SDC4 juxtamembrane and tail regions] | 2 | – | 3 | 2 | 2 | 3 | 1 | 2 | – | – | – | 75 | 62 | 81 | 70 | 62 | 68 | – | – | – | Activation, 5μM (resting platelets): 2%; Aggregation (inhibition effects of syndecan-derived peptides) (TRAP-activated platelets; peptide 20 μM, TRAP 4 μM, mean): 69; Platelet aggregation remaining after TRAP (low = inhibition) (TRAP-activated platelets; [4]): 63; Platelet aggregation remaining after TRAP (low = inhibition) (TRAP-activated platelets; [5]): 69
